Source: paper PMC8325362, “Drugs repurposed for COVID-19 by virtual screening of 6,218 drugs and cell-based assay” (Proceedings of the National Academy of Sciences of the …, 2021)
Like-named read-outs stand apart in the source and are kept apart here.

Tests used:
[1] = human, cited from earlier work
[2] = tested on: SARS-CoV-2; assay: in vitro; settings: African green monkey
[3] = in vitro; settings: African green monkey, Relative cell viability (%)
[4] = tested on: SARS-CoV-2; assay: Checkerboard drug combination assay, SARS-CoV-2 inhibition in Vero cells; assay type: cell-based; settings: Severe acute respiratory syndrome coronavirus 2, Vero, read-out: Relative viral inhibition (%); for inhibition at 0.03 µM: Omipalisib 0.03 μM; for inhibition at 0.06 µM: Omipalisib 0.06 μM; for inhibition at 0.12 µM: Omipalisib 0.12 μM; for inhibition at 0.25 µM: Omipalisib 0.25 μM; for inhibition at 0.49 µM: Omipalisib 0.49 μM; for inhibition at 0.98 µM: Omipalisib 0.98 μM; for inhibition at 1.97 µM: Omipalisib 1.97 μM; for inhibition at 0.63 µM: Remdesivir 0.63 μM; for inhibition at 1.26 µM: Remdesivir 1.26 μM; for inhibition at 2.52 µM: Remdesivir 2.52 μM; for inhibition at 5.05 µM: Remdesivir 5.05 μM; for inhibition at 10.09 µM: Remdesivir 10.09 μM; for inhibition at 20.18 µM: Remdesivir 20.18 μM; for inhibition at 40.36 µM: Remdesivir 40.36 μM
[5] = in vitro; settings: African green monkey
[6] = tested on: SARS-CoV-2; assay: microbe, parasite or virus in culture; settings: Severe acute respiratory syndrome coronavirus 2, Vero, 24 h, read-out: SARS-CoV-2 IC50 in Vero cells
[7] = target: M^pro (Severe acute respiratory syndrome coronavirus 2, UniProt P0DTD1); assay type: biochemical; settings: FRET assay, 0.1 to 50 μM
[8] = in vitro; settings: human
[9] = tested on: SARS-CoV-2; assay: microbe, parasite or virus in culture; assay type: cell-based; settings: for IC50: Calu-3 cells, MOI 0.5, 24 h
[10] = tested on: SARS-CoV-2
[11] = tested on: COVID-19; settings: cited from earlier work
[12] = Checkerboard drug combination assay, cell viability of Vero cells; settings: African green monkey, Vero cells (ATCC CCL-81), Relative cell viability (%); for viability at 24 h, 0.63 μM: Remdesivir 0.63 μM; for viability at 24 h, 1.26 μM: Remdesivir 1.26 μM; for viability at 24 h, 2.52 μM: Remdesivir 2.52 μM; for viability at 24 h, 5.05 μM: Remdesivir 5.05 μM; for viability at 24 h, 10.09 μM: Remdesivir 10.09 μM; for viability at 24 h, 20.18 μM: Remdesivir 20.18 μM; for viability at 24 h, 40.36 μM: Remdesivir 40.36 μM
[13] = Severe acute respiratory syndrome coronavirus 2, Calu-3, 24 h

COc1ncc(-c2ccc3nccc(-c4ccnnc4)c3c2)cc1NS(=O)(=O)c1ccc(F)cc1F [Omipalisib]
Cmax ([1]; in vivo, po): ~0.3 µM
selectivity ratio [2]: 62.8
viability ([3]; Fig. 4B, Omipalisib 0.03 μM, Remdesivir 0.00 μM): 82%
viability ([3]; Fig. 4B, Omipalisib 0.06 μM, Remdesivir 0.00 μM): 82%
viability ([3]; Fig. 4B, Omipalisib 0.12 μM, Remdesivir 0.00 μM): 80%
viability ([3]; Fig. 4B, Omipalisib 0.25 μM, Remdesivir 0.00 μM): 81%
viability ([3]; Fig. 4B, Omipalisib 0.49 μM, Remdesivir 0.00 μM): 80%
viability ([3]; Fig. 4B, Omipalisib 0.98 μM, Remdesivir 0.00 μM): 81%
viability ([3]; Fig. 4B, Omipalisib 1.97 μM, Remdesivir 0.00 μM): 80%
viability ([3]; Fig. 4E, Tipifarnib 0.00 μM, Omipalisib 0.03 μM): 87%
viability ([3]; Fig. 4E, Tipifarnib 0.00 μM, Omipalisib 0.06 μM): 89%
viability ([3]; Fig. 4E, Tipifarnib 0.00 μM, Omipalisib 0.12 μM): 88%
viability ([3]; Fig. 4E, Tipifarnib 0.00 μM, Omipalisib 0.25 μM): 88%
viability ([3]; Fig. 4E, Tipifarnib 0.00 μM, Omipalisib 0.49 μM): 88%
viability ([3]; Fig. 4E, Tipifarnib 0.00 μM, Omipalisib 0.98 μM): 87%
viability ([3]; Fig. 4E, Tipifarnib 0.00 μM, Omipalisib 1.97 μM): 84%
inhibition at 0.03 µM ([4]; Fig. 4A, Remdesivir 0.00 μM): 6%
inhibition at 0.06 µM ([4]; Fig. 4A, Remdesivir 0.00 μM): 6%
inhibition at 0.12 µM ([4]; Fig. 4A, Remdesivir 0.00 μM): 15%
inhibition at 0.25 µM ([4]; Fig. 4A, Remdesivir 0.00 μM): 29%
inhibition at 0.49 µM ([4]; Fig. 4A, Remdesivir 0.00 μM): 63%
inhibition at 0.98 µM ([4]; Fig. 4A, Remdesivir 0.00 μM): 73%
inhibition at 1.97 µM ([4]; Fig. 4A, Remdesivir 0.00 μM): 78%
inhibition at 0.03 µM ([4]; Fig. 4D, Tipifarnib 0.00 μM): 11%
inhibition at 0.06 µM ([4]; Fig. 4D, Tipifarnib 0.00 μM): 31%
inhibition at 0.12 µM ([4]; Fig. 4D, Tipifarnib 0.00 μM): 60%
inhibition at 0.25 µM ([4]; Fig. 4D, Tipifarnib 0.00 μM): 90%
inhibition at 0.49 µM ([4]; Fig. 4D, Tipifarnib 0.00 μM): 93%
inhibition at 0.98 µM ([4]; Fig. 4D, Tipifarnib 0.00 μM): 95%
inhibition at 1.97 µM ([4]; Fig. 4D, Tipifarnib 0.00 μM): 95%
CC50 at 24 h [5]: 30800 nM
IC50 [6]: 490 nM
inhibitory activity against M^pro [7]: showed no inhibitory activity
CC50 at 24 h [8]: > 20 nM
fold higher activity than remdesivir ([9]; Calu-3): 200 fold
IC50 [9]: 10 nM
fold lower IC50 in Calu-3 cells than in Vero cells ([9]; Calu-3 vs Vero): 49 fold
IC50 [9, 13]: 10 nM
fold higher antiviral activity than remdesivir ([10]; Vero cells): 20 fold

CCC(CC)COC(=O)[C@H](C)N[P@](=O)(OC[C@H]1O[C@@](C#N)(c2ccc3c(N)ncnn23)[C@H](O)[C@@H]1O)Oc1ccccc1 [Remdesivir]
patients with clinical improvement ([11]; 36 out of 53 patients with severe illness): 68%
average recovery time ([11]; COVID-19 patients, vs 15 d placebo): 11 days
clinical benefits ([11]; severe COVID-19 patients): no statistically significant clinical benefits
Cmax ([1]; read-out: Approx. Cmax (maximum serum concentration), intravenous injection): ~9 µM
selectivity ratio [2]: 4.96
inhibition at 0.63 µM ([4]; Fig. 4A, Omipalisib 0.00 μM): 4%
inhibition at 1.26 µM ([4]; Fig. 4A, Omipalisib 0.00 μM): 4%
inhibition at 2.52 µM ([4]; Fig. 4A, Omipalisib 0.00 μM): 1%
inhibition at 5.05 µM ([4]; Fig. 4A, Omipalisib 0.00 μM): 20%
inhibition at 10.09 µM ([4]; Fig. 4A, Omipalisib 0.00 μM): 55%
inhibition at 20.18 µM ([4]; Fig. 4A, Omipalisib 0.00 μM): 81%
inhibition at 40.36 µM ([4]; Fig. 4A, Omipalisib 0.00 μM): 89%
inhibition at 0.63 µM ([4]; Fig. 4G, Tipifarnib 0.00 μM): 1%
inhibition at 1.26 µM ([4]; Fig. 4G, Tipifarnib 0.00 μM): 3%
inhibition at 2.52 µM ([4]; Fig. 4G, Tipifarnib 0.00 μM): 16%
inhibition at 5.05 µM ([4]; Fig. 4G, Tipifarnib 0.00 μM): 54%
inhibition at 10.09 µM ([4]; Fig. 4G, Tipifarnib 0.00 μM): 91%
inhibition at 20.18 µM ([4]; Fig. 4G, Tipifarnib 0.00 μM): 97%
inhibition at 40.36 µM ([4]; Fig. 4G, Tipifarnib 0.00 μM): 98%
CC50 [5]: > 50000 nM
viability at 24 h, 0.63 μM ([12]; Fig. 4B, Omipalisib 0.00 μM): 86%
viability at 24 h, 1.26 μM ([12]; Fig. 4B, Omipalisib 0.00 μM): 87%
viability at 24 h, 2.52 μM ([12]; Fig. 4B, Omipalisib 0.00 μM): 87%
viability at 24 h, 5.05 μM ([12]; Fig. 4B, Omipalisib 0.00 μM): 91%
viability at 24 h, 10.09 μM ([12]; Fig. 4B, Omipalisib 0.00 μM): 92%
viability at 24 h, 20.18 μM ([12]; Fig. 4B, Omipalisib 0.00 μM): 93%
viability at 24 h, 40.36 μM ([12]; Fig. 4B, Omipalisib 0.00 μM): 93%
viability at 24 h, 0.63 μM ([12]; Fig. 4H, Tipifarnib 0.00 μM): 88%
viability at 24 h, 1.26 μM ([12]; Fig. 4H, Tipifarnib 0.00 μM): 90%
viability at 24 h, 2.52 μM ([12]; Fig. 4H, Tipifarnib 0.00 μM): 94%
viability at 24 h, 5.05 μM ([12]; Fig. 4H, Tipifarnib 0.00 μM): 97%
viability at 24 h, 10.09 μM ([12]; Fig. 4H, Tipifarnib 0.00 μM): 95%
viability at 24 h, 20.18 μM ([12]; Fig. 4H, Tipifarnib 0.00 μM): 98%
viability at 24 h, 40.36 μM ([12]; Fig. 4H, Tipifarnib 0.00 μM): 94%
IC50 [6]: 10100 nM
CC50 [8]: > 50000 nM
IC50 [9, 13]: 2490 nM
antiviral activity against SARS-CoV-2 in Vero cells ([10]; assay validation with reference drugs): showed antiviral activity
